# Experimental data reported in patent publication US20080056993A1, “Compositions, Methods and Kits Using Adenosine and Inosine in Combination for Diagnosis and Treatment” (ADENOBIO N.V., priority 2006, published 2008).
# “And” between values parts separate entries of the source, which are not always exact repeats. Equal values may be shown once.
# How the values were obtained:
# anaesthetized rats = assay: Carotid blood flow (CaBF) in anaesthetized rats, continuous i.v. infusion; type: in vivo, rat; settings: for increase in CaBF, percentage variation from baseline: 6 min continuous i.v. infusion, adenosine 0.05 mg/kg/min, inosine 0.2 mg/kg/min, alone or combined (A:I 1:4), Mean±SEM, n=6; for effect of inosine alone on CaBF: 5 min i.v. infusion
# Method: The study was conducted on 7 week old male Wistar rats weighing 250-300 g. Rats were anaesthetized with Inactin 100 mg/kg i.p. Inactin was preferred to other anaesthetics because of its moderate impact on blood pressure. Heparin-filled (100 IU/ml in saline) catheters were introduced into the left common carotid artery and into the left jugular vein for measurement of blood pressure and drug administration respectively. A flow probe was inserted around the right carotid artery for measurement of carotid blood flow (CaBF).
# In a first series of experiments, adenosine was administered as a single agent to identify the dose providing maximal increase in carotid arterial blood flow (“adenosine max”). In this experiment, various concentrations of adenosine were infused continuously through the jugular vein catheter for 5 minutes, with concurrent measurement of carotid arterial blood flow.
# A second series of experiments was performed to assess whether inosine could potentiate the effects on CaBF of a continuous intravenous infusion of adenosine at half adenosine max.
# In each experiment, the effect on CaBF of (i) adenosine as a single agent, infused continuously for five minutes at adenosine max (0.1 mg/kg/min), (ii) adenosine as single agent infused continuously for five minutes at half adenosine max (0.05 mg/kg/min), and (iii) a composition containing a fixed dose of adenosine at half adenosine max (0.05 mg/kg/min) combined with inosine infused continuously for five minutes, was assessed. In separate experiments, inosine was included in the combined (“BIDOSINE”) composition in amounts required to achieve infusion at 0.1 mg/kg/min (A:I weight ratio of 1:2, FIG. 2A), 0.15 mg/kg/min (A:I weight ratio of 1:3, FIG. 2B), 0.2 mg/kg/min (A:I weight ratio of 1:4, FIG. 2C), and 0.25 mg/kg/min (A:I weight ratio of 1:5, FIG. 2D).
# sheep [1] = assay: Invasive cardiac hemodynamic measurements in experimental sheep model; type: in vivo
# Excerpt: An experimental sheep model, developed for invasive hemodynamic measurements under various conditions, was used to study the potentiating and synergistic effects of inosine on continuous adenosine infusion. The model is described in Tanoue et al., “Ischemic preconditioning reduces unloaded myocardial oxygen consumption in an in-vivo sheep model,” Cardiovascular Research 55: 633-641 (2002) and Xia et al., “Remote preconditioning lessens the deterioration of pulmonary function after repeated coronary artery occlusion and reperfusion,” Canadian Journal of Anesthesia 50: 481-488 (2003), the disclosures of which are incorporated herein by reference in their entireties. A total of twelve animals were studied. Briefly, the sheep were premedicated, anesthetized, intubated, and ventilated with positive pressure ventilation. Electrocardiogram (ECG) was continuously followed. The carotid artery was surgically denuded to place an arterial line for arterial blood pressure (ABP) measurement. Denuding of the jugular vein was performed to place a double or triple lumen central venous line for measurement of central venous pressure (CVP) and fluid and drug administration. A small left thoracotomy was made in the third or fourth intercostal space and the heart suspended in a pericardial cradle. A flow probe (transonic probe) was placed around the pulmonary artery and around the left circumflex coronary artery. A catheter was inserted in the pulmonary artery to determine pulmonary arterial pressure. In addition, 9 animals received a conductance catheter which was positioned in the left and right ventricle and preload-afterload variations were made by occlusion and/or constriction of the caval veins and/or pulmonary artery and/or aorta in order to study myocardial contractility. Regional blood flow measurements were also performed using a colored microsphere injection technique. Each animal served as its own control. The sequence of measurements was always the same: 1) under baseline conditions; 2) under adenosine; 3) 15 minutes stabilization, then new measurements under baseline conditions; 4) measurements under bidosine. From the first three animal experiments, it was determined that adenosine 200 μg/kg/min was the optimal single agent adenosine dose, i.e., the dose ensuring the highest coronary flow (adenosine max). Therefore, all further experiments compared this dose to the BIDOSINE formulation containing 100 μg/kg/min (that is, half adenosine max) adenosine+500 μg/kg/min inosine (A:I ratio of 1:5).
# sheep [2] = assay: Regional myocardial blood flow by colored microsphere technique in sheep; type: in vivo; settings: mean of 9 experiments, after 5 minutes of adenosine or BIDOSINE
# Excerpt: Regional blood flows, as well as potential changes in the distribution of coronary flow into different parts of the myocardium, were also studied. This was done by using a colored microsphere technique, essentially as described in Muller et al., “Developmental changes in cerebral autoregulatory capacity in the fetal sheep parietal cortex,” J Physiol. 539(Pt 3):957-67 (2002); Miller et al., “Physiological evidence for arteriovenous anastomoses in the uterine circulation of late-pregnant ewes,” Clin. Exp. Pharmacol. Physiol. 25(2):92-8 (1998); Herijgers et al., “Changes in organ perfusion after brain death in the rat and its relation to circulating catecholamines,” Transplantation 62: 330-335 (1996); and Wouters et al., “Ischemic event characteristics determine the extent of myocardial stunning in conscious dogs,” Basic Res. Cardiol. 91(2):140-6 (1996), the disclosures of which are incorporated herein by reference in their entireties. Briefly, colored microspheres were injected at baseline, and after 5 minutes of adenosine or BIDOSINE administration. At necropsy, tissue was digested and the number of colored microspheres per gram of wet weight in a tissue sample determined. By comparing these numbers with the number of microspheres in a reference sample drawn from the aorta at a predetermined rate, we could quantify the absolute flow rate to the tissue sample at the moment when the microspheres were injected. The statistical analysis was performed by the same methodology as for the hemodynamic parameters. Values are expressed in ml/min/g tissue (wet weight). LV=left ventricle; RV=right ventricle; endo=endocardial half; epi=epicardial half. As in Table 2, the numbers reflect the sequence of experimental conditions, as follows: 1) under baseline conditions; 2) under adenosine; 3) 15 minutes stabilization, then new measurements under baseline conditions; 4) measurements under bidosine.
# male Wistar rats [3] = assay: Reperfusion injury after left myocardial ischemia (35 min LAD occlusion) in the rat, echocardiography; type: in vivo; set-up: EDV (end-diastolic volume), single animals / ESV (end-systolic volume), single animals / EDV (end-diastolic volume), group mean (unlabelled last line of group) / ESV (end-systolic volume), group mean (unlabelled last line of group): unit not given here; settings: for EDV (end-diastolic volume), single animals / EF (ejection fraction), single animals / ESV (end-systolic volume), single animals: 60 min i.v. infusion after 35 min occlusion
# male Wistar rats [4] = assay: Reperfusion injury after myocardial ischemia in the rat, repeated with 45 minute ischemia; type: in vivo; settings: day 30 post ischemia, preliminary
# Method: The experiment was repeated with 45 minute period of ischemia, and with the addition of a further BIDOSINE experimental group. The BIDOSINE composition for this additional group comprised adenosine, administered at 0.01 mg/kg/min ( 1/10 its single agent maximally effective dose) with inosine 0.20 mg/kg/min, for an A:I weight ratio of 1:20. Preliminary results (n=5 per group) of this ongoing study are given in Table 5, below, reporting day 30 post ischemia results.
# [5] = test system: rat model of spinal cord ischemia; assay: Photothrombotic model of spinal cord ischemia in rats, behavioral studies; type: in vivo
# Method: BIDOSINE administration was compared to adenosine (0.1 mg/kg/min), administered by continuous i.v. infusion from thirty to sixty minutes after the injury (n=13 in each group). As controls, a group of animals (n=11) received a 60-min IV perfusion of saline solution starting 30 min after the injury. The potential neuroprotective effect of the compound was evaluated by performing various behavioral studies. In these experiments, the photothrombotic model of ischemia was chosen over the occlusion model (aortic clamp), since it better reproduces the pathophysiology of an ischemic insult. The photothrombotic model has the advantages of (i) causing a […] processes that more perfectly mimics the pathophysiological conditions observed in clinics, and (ii) affecting a controlled volume of nervous tissue. Moreover, the location of the lesion can be restricted to precise regions (three to four […]). The injury is created using a beam of a xenon lamp conveyed by fiberoptics on the selected vertebral site. The irradiation is performed over the translucent dorsal surface of the vertebral laminae. The green light (560 nm) induces the excitation of the previously injected dye (Rose Bengal) present in the spinal cord microvasculature. […]
# [6] = Maximal solubility in nonpyrogenic fluid suitable for parenteral infusion; type: physicochemical; settings: adenosine and inosine combined in a nonpyrogenic fluid suitable for parenteral infusion
# Method: Combined in a nonpyrogenic, fluid suitable for parenteral infusion, maximal adenosine solubility is about 4 mg/ml and that of inosine 20 mg/ml. Concentrations approaching one or both of these maxima are convenient for unit dosage forms intended for long infusion times, since high concentrations of the nucleoside actives reduce the volume required to be infused. Typical embodiments include, for example, 250 ml containers (vials, etc.) containing 1,000 mg of adenosine with 100 mg, 1,000 mg, 2,000 mg, or even 3,000 mg, 4,000 mg, 5,000 mg, even 6,000 mg of inosine, with intermediate inosine amounts permissible.
# [7] = cited from earlier work
# human patients = settings: cited from earlier work
# [8] = adenosine 200 μg/kg/min or BIDOSINE (adenosine 100 + inosine 500 μg/kg/min)
# [9] = adenosine 200 μg/kg/min or BIDOSINE (adenosine 100 + inosine 500 μg/kg/min), listed as Adenosine
structure (smiles),measurement,setting,value
Nc1ncnc2c1ncn2[C@@H]1O[C@H](CO)[C@@H](O)[C@H]1O [adenosine],adenosine dose providing maximal CaBF as a single agent (adenosine max),"anaesthetized rats; 5 min continuous i.v. infusion, 0.01-1 mg/kg/min tested",0.1 mg/kg/min
same,"increase in CaBF, percentage variation from baseline",anaesthetized rats,7±4%
same,"Cardiac output (co), mean",sheep [1]; [8],4943
same,"Central venous pressure (CVP), mean",sheep [1]; [8],9.4875
same,"Coronary flow (cf), mean",sheep [1]; [8],129.55
same,"Heart rate (HR), mean",sheep [1]; [8],90.6375
same,"Left ventricular dP/dtmax (contractility) (dpmax), mean",sheep [1]; [8],1077.714
same,"Left ventricular dP/dtmin (relaxation) (dpmin), mean",sheep [1]; [8],worsened significantly more
same,"Mean arterial blood pressure (ABPm), mean",sheep [1]; [8],decreased significantly more
same,"Mean pulmonary arterial pressure (pupm), mean",sheep [1]; [8],16.425
same,"Systolic left ventricular pressure (LVPsys), mean",sheep [1]; [8],decreased significantly more
same,"Left ventricular dP/dtmin (relaxation) (dpmin), mean",sheep [1]; [9],−821.286
same,"Mean arterial blood pressure (ABPm), mean",sheep [1]; [9],43.2625
same,"Systolic left ventricular pressure (LVPsys), mean",sheep [1]; [9],59.35
same,left ventricular relaxation constant (Tau) compared with baseline,"sheep [1]; adenosine at adenosine max or BIDOSINE A:I 1:5, ANOVA p=0.001",significantly shorter
same,coronary blood flow,"sheep [1]; continuous i.v. infusion, adenosine 200 μg/kg/min or BIDOSINE (100 + 500 μg/kg/min)",129.5 cms/sec
same,"optimal single agent adenosine dose, ensuring the highest coronary flow (adenosine max)",sheep [1]; from the first three animal experiments,200 µg/kg/min
same,"Regional blood flow, left ventricle endocardial half (Lvendo), mean",sheep [2],1.763 ml/min/g tissue (wet weight)
same,"Regional blood flow, left ventricle epicardial half (Lvepi), mean",sheep [2],2.039 ml/min/g tissue (wet weight)
same,"Regional blood flow, right ventricle endocardial half (RVendo), mean",sheep [2],2.227 ml/min/g tissue (wet weight)
same,"Regional blood flow, right ventricle epicardial half (RVepi), mean",sheep [2],1.728 ml/min/g tissue (wet weight)
same,"Regional blood flow, left ventricle endocardial half (Lvendo), mean",sheep [2]; listed as Adenosine,1.764 ml/min/g tissue (wet weight)
same,"EDV (end-diastolic volume), group mean (unlabelled last line of group)",male Wistar rats [3]; Post-operative day 2,0.40
same,"EF (ejection fraction), group mean (unlabelled last line of group)",male Wistar rats [3]; Post-operative day 2,0.60
same,"ESV (end-systolic volume), group mean (unlabelled last line of group)",male Wistar rats [3]; Post-operative day 2,0.16
same,"EDV (end-diastolic volume), single animals",male Wistar rats [3]; Post-operative day 2,0.41 and 0.35 and 0.37 and 0.48
same,"EF (ejection fraction), single animals",male Wistar rats [3]; Post-operative day 2,0.67 and 0.64 and 0.60 and 0.49
same,"ESV (end-systolic volume), single animals",male Wistar rats [3]; Post-operative day 2,0.14 and 0.13 and 0.15 and 0.24
same,"EDV (end-diastolic volume), group mean (unlabelled last line of group)",male Wistar rats [3]; Post-operative day 30,0.38
same,"EF (ejection fraction), group mean (unlabelled last line of group)",male Wistar rats [3]; Post-operative day 30,0.59
same,"ESV (end-systolic volume), group mean (unlabelled last line of group)",male Wistar rats [3]; Post-operative day 30,0.20
same,"EDV (end-diastolic volume), single animals",male Wistar rats [3]; Post-operative day 30,0.44 and 0.42 and 0.33 and 0.36
same,"EF (ejection fraction), single animals",male Wistar rats [3]; Post-operative day 30,0.61 and 0.32 and 0.65 and 0.44
same,"ESV (end-systolic volume), single animals",male Wistar rats [3]; Post-operative day 30,0.17 and 0.29 and 0.12 and 0.20
same,ejection fraction,"male Wistar rats [3]; day 30, adenosine 0.1 mg/kg/min or adenosine 0.05 + inosine 0.25 mg/kg/min",59%
same,left ventricular EF (LVEF),male Wistar rats [4],45%
same,EDV,male Wistar rats [4]; n=5 per group,0.47
same,ESV,male Wistar rats [4]; n=5 per group,0.26
same,LVEF,male Wistar rats [4]; n=5 per group,0.45
same,"behavioral recovery (motor, sensory and reflex scores), all tested functions","[5]; BIDOSINE 1:5 (adenosine 0.05 + inosine 0.25 mg/kg/min) or adenosine 0.1 mg/kg/min i.v. after injury, follow-up to day 10",best efficacy until day 4
same,"gross and fine motor functional outcomes (open field, inclined plane, grid navigation)","[5]; compared to saline controls, to day 10, two way ANOVA p<0.001",Statistically significant improvements over control
same,solubility,[6],~4 mg/mL
same,half life,[7],several seconds
same,side effects,human patients; continuous intravenous infusion 140 μg/kg/min for 6 minutes,frequent side effects
same,adverse reactions,human patients; dosage of 70 μg/kg/min or less,very few and of mild intensity
OC[C@H]1O[C@@H](n2cnc3c(O)ncnc32)[C@H](O)[C@@H]1O [inosine],"increase in CaBF, percentage variation from baseline",anaesthetized rats,4±2%
same,effect of inosine alone on CaBF,anaesthetized rats; inosine 0.3 mg/kg/min,No response
same,effect of inosine alone on CaBF,anaesthetized rats; inosine 1 mg/kg/min (10 times adenosine max),Modest decreases in CaBF
same,effect of inosine alone on CaBF,anaesthetized rats; inosine between 1 to 10 mg/kg/min,sharp slump and dose-dependent decrease in CaBF
same,solubility,[6],20 mg/mL
